Results on 7 molecules are retold here after US8940863B2, “Selective anticancer chimeric peptides which bind neuropilin receptor” (Stella Pharma Corporation, priority 2008, dated 2015).

For experiment [1], the system named is U251. As to the kind of experiment: Short-exposure killing of cancer cells (WST-8). The format is cell-based, human. The following applies: 10 μM. (In general: Formazan colour is commonly taken as a measure of viable cells.)
The subject of experiment [2] is U251. Conditions: for IC50: 72 h.
The test system of a further experiment is HN-12. Briefly: Cell viability assay (WST-8). The format is cell-based, human. Conditions: 72 hours.
Another experiment concerns WI-38. Conditions: 72 h.
The test system of another experiment is HEK293T. It is filed as cell-based. The following applies: 72 h.
Experiment [3] has as its system PE cell (pancreatic epidermal). As to the kind of experiment: Cell viability assay (WST-8). The format is cell-based. The source says:
(§1) Correlation between IC50 values was observed.

The test system of another experiment is KCCT873. As to the kind of experiment: Cell viability assay (WST-8). It is filed as cell-based. The following applies: 72 h.
Experiment [4] concerns BxPC-3. Conditions: for IC50: 72 h.
The subject of another experiment is MDA-MB-231. Conditions: for IC50: 72 h.
The subject of a further experiment is A172. As to the kind of experiment: Cell viability assay (WST-8). The format is cell-based. The following applies: 72 h.
Experiment [5] relates to BxPC-3. Briefly: Short-exposure killing of cancer cells (WST-8). The format is cell-based, human. Conditions: 10 μM.
The next experiment concerns COLO587. Briefly: Cell viability assay (WST-8). The format is cell-based.
Excerpt: as §1

Another experiment deals with SN-19. Briefly: Cell viability assay (WST-8). The format is cell-based.
Excerpt: as §1

The next experiment relates to LNCaP. The following applies: for IC50: 72 h.
The test system of a further experiment is MRC-5. The following applies: 72 h.
Experiment [6] relates to HC cell (hepatocyte cell). As to the kind of experiment: Cell viability assay (WST-8). The following applies: 72 h. The format is cell-based, human.
Excerpt: as §1

Experiment [7] has as its system T47D. Briefly: Cell viability assay (WST-8). The format is cell-based, human. Conditions: for IC50: 72 h.
Excerpt: as §1

The test system of another experiment is PE cells (normal cells). Briefly: Annexin V and caspase 3,7 flow cytometry. The format is cell-based. Conditions: 10 μM, two hours. (In general: In flow cytometry, cells or beads pass a laser one at a time.)
For a further experiment, the system named is T47D breast cancer cells. Briefly: Membrane permeabilization (calcein). The format is cell-based, human. The following applies: 10 μM, 0 to 15 minutes. Here is the method:
Furthermore, after addition of TfR-lytic chimeric peptide at concentration of 10 μM, the cells in calcein solution were observed after 0 minute, five minutes, 10 minutes and 15 minutes.

For experiment [8], the system named is T47D. As to the kind of experiment: Annexin V and caspase 3,7 flow cytometry. The format is cell-based, human. Conditions: 10 μM, two hours. Here is the method: T47D and PE cells were incubated with TfR-lytic chimeric peptide (10 μM) and lytic peptide (10 μM) for two hours. Annexin V (FIG. 26A) and caspase 3,7 activity (FIG. 26B) were detected in the green channel, and propidium iodide staining was detected in the red channel, and flow cytometry analysis was performed. In T47D cells treated with TfR-lytic chimeric peptide, the ratio of the right half panel showing Annexin V-positive cells and caspase 3,7-activated cells increased.

Experiment [9] has as its system T47D. As to the kind of experiment: Short-exposure killing of cancer cells (WST-8). The format is cell-based, human. Conditions: 1 to 180 minutes exposure. Here is the method: The cells were further cultured for 72 hours.
A further experiment relates to DU145. As to the kind of experiment: Cell viability assay (WST-8). The format is cell-based, human. The following applies: 72 hours.
In the next experiment the test system is H322. Conditions: 72 hours.
The test system of experiment [10] is human recombinant IL13R protein. Briefly: BIACORE binding to IL13R.
In another experiment the test system is U937. Conditions: 72 h.
The test system of another experiment is HEK293. The following applies: 72 h.
The next experiment deals with OE19. The following applies: 72 h.
The target of experiment [11] is human recombinant NRP1 protein (Homo sapiens, UniProt O14786). Briefly: BIACORE binding to NRP1. As to the method:
Based on the results of binding three-dimensional structure analysis of NRP1 and a Sema3A, a ligand thereof, partial peptide sequence which is important for binding (NYQWVPYQGRVPYPR (SEQ ID NO: 29)) was designed and chemically synthesized. By BIACORE analysis, binding affinity with human recombinant NRP1 protein was assessed.
(In general: Surface plasmon resonance follows binding to a sensor surface in real time, without labels.)

Where two headings read alike, the source gives them in different places. Non-standard residues stand in square brackets, D forms with d. Residues, ends and D or L forms follow the SMILES beside them. No end group written: not given here.

Chain of human recombinant NRP1 protein (O14786 22-923): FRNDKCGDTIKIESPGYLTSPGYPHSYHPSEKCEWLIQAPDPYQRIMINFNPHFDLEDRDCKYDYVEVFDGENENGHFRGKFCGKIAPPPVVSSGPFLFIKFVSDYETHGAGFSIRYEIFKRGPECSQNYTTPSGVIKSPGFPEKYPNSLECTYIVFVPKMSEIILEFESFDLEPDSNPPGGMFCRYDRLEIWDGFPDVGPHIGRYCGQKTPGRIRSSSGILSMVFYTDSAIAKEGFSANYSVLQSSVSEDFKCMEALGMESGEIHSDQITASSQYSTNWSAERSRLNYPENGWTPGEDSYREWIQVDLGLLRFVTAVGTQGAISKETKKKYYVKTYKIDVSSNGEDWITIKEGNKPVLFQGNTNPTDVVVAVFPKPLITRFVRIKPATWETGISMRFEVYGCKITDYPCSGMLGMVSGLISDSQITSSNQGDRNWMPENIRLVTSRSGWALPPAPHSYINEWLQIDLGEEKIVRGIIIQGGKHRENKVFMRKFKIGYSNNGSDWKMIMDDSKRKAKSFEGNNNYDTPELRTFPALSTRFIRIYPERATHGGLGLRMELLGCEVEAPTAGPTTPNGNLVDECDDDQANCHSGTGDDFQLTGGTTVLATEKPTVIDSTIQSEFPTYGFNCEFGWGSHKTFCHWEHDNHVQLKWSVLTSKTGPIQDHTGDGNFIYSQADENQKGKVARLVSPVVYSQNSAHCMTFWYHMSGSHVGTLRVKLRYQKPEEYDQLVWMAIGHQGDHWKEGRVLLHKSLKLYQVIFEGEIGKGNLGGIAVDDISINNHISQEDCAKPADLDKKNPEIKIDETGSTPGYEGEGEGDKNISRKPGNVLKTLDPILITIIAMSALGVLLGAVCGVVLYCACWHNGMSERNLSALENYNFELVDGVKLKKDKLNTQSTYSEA

For the molecule “KDLLLHLKKLFREGQFNGGGKLLLKLLKKLLKLLKKK (IL13-lyticL chimeric peptide)”, the “contact time that sufficiently induces cell death” value with U251 [1] came to 10 min. Further, the “cell-killing effect compared with LyticL alone” value with U251 [2] (U251, 72 hours) is on record as “cell-killing effect was enhanced”; in the experiment with HN-12, “cell-killing effect was enhanced”.

The IC50 is the point on the concentration scale where inhibition reaches its midpoint. In the case of “KQLIRFLKRLDRNGGGKLLLKLLKKLLKLLKKK [IL4-LyticL]”, the half-inhibitory concentration (IC50) was 9.8 ± 0.8 µM in the experiment on WI-38; 7.2 ± 0.7 µM in the experiment on HEK293T; greater than 20 µM in experiment [3] (PE normal cells, 72 hours, Mean ± SD (Table 4), read-out: IC50); 4.6 ± 0.1 µM in the experiment with KCCT873; 3.2 ± 0.4 µM with BxPC-3 [4]; 3.7 ± 0.1 µM in the experiment on U251 [2]. Besides, the results for the IC50 with MDA-MB-231 and with A172 were 5.6 ± 0.5 µM and 3.8 ± 1.1 µM, respectively. The “cell-killing effect compared with LyticL alone” value in the experiment with BxPC-3 [4] (BxPC-3, 72 hours) is reported as “cell-killing effect was enhanced”; in the experiment with MDA-MB-231 (MDA-MB-231, 72 hours) it was “cell-killing effect was enhanced”. The “contact time that sufficiently induces cell death” value in the experiment on BxPC-3 [5] amounted to 10 min.

As to `CSCC[C@H](NC(=O)[C@@H]1CCCN1C(=O)[C@@H]1CCCN1C(=O)[C@H](CCCNC(=N)N)NC(=O)[C@H](Cc1c[nH]cn1)NC(=O)[C@@H](N)[C@@H](C)O)C(=O)N[C@@H](Cc1c[nH]c2ccccc12)C(=O)N[C@@H](CO)C(=O)N1CCC[C@H]1C(=O)N[C@H](C(=O)N[C@@H](Cc1c[nH]c2ccccc12)C(=O)N1CCC[C@H]1C(=O)NCC(=O)NCC(=O)NCC(=O)N[C@@H](CCCCN)C(=O)N[C@@H](CC(C)C)C(=O)N[C@H](CC(C)C)C(=O)N[C@@H](CC(C)C)C(=O)N[C@@H](CCCCN)C(=O)N[C@H](CC(C)C)C(=O)N[C@@H](CC(C)C)C(=O)N[C@H](CCCCN)C(=O)N[C@H](CCCCN)C(=O)N[C@@H](CC(C)C)C(=O)N[C@@H](CC(C)C)C(=O)N[C@@H](CCCCN)C(=O)N[C@H](CC(C)C)C(=O)N[C@@H](CC(C)C)C(=O)N[C@@H](CCCCN)C(=O)N[C@@H](CCCCN)C(=O)N[C@@H](CCCCN)C(=O)O)C(C)C` [TfR-lytic peptide] (H-THRPPMWSPVWPGGGKL[dL]LK[dL]L[dK][dK]LLK[dL]LKKK-OH; N-terminus and C-terminus assumed), the 50% inhibitory concentration (IC50) in the experiment on COLO587 (72 h) was 6.9 µM; in the experiment with SN-19 (72 h) it was 8.2 µM; in [3] (72 h), greater than 20 µM; in the experiment on LNCaP it was 6.2 µM; in the experiment on MRC-5, greater than 20 µM; in [6], greater than 20 µM. The 50% inhibitory concentration (IC50) worked out at 4.8 µM in the experiment on T47D [7], 6.8 µM with U251 [2], 6.7 µM in the experiment on MDA-MB-231 and 5.3 µM in the experiment on SK-BR-3 (72 h). The “IC50 ratio Lytic/TfR-lytic” value in the experiment on COLO587 (COLO587) was found to be 2.0; in the experiment with SN-19 (SN-19), 3.1; with LNCaP (LNCaP), 2.7; with T47D [7] (T47D), 3.8; in the experiment on U251 [2] (U251), 2.8; with MDA-MB-231 (MDA-MB-231) it was 4.4. For the same molecule, the “IC50 ratio Lytic/TfR-lytic” value with SK-BR-3 (SK-BR-3) is 5.0. The “percentage of Annexin V-positive cells and caspase 3,7-activated cells” value with PE cells (normal cells) is listed as “did not increase”. Besides, the “membrane permeation” value with T47D breast cancer cells is listed as “permeated the membrane was observed”. Besides, the “ratio of Annexin V-positive cells and caspase 3,7-activated cells” value in the experiment with T47D [8] is given as “increased”. In the experiment with T47D [9], the “rapid killing of cancer cells” value is “rapidly kill T47D cancer cells”.

Consider “YHWYGYTPQNVIGGGGGRLLRRLLRRLLRK (EGFbuf sequence)”, for which the “cell-killing effect compared with buf alone” value in the experiment with DU145 is reported as “cell-killing effect was enhanced”. Further, the “cell-killing effect to H322 compared with lung normal cell line MRC-5” value in the experiment with H322 (0 to 20 μM) is “cell-killing sensitiveness to cancer cells was high”. In addition, the “cell-killing effect of chimeric peptide compared with lytic moiety alone” value with H322 (H322) is on record as “cell-killing effect was enhanced”.

For “KDLLLHLKKLFREGQFN (IL13R binding peptide) [IL13R-binding peptide]”, the “binding affinity (BIACORE, words)” value in experiment [10] is “binding affinity with human recombinant IL13R protein was observed”.

`CC(C)C[C@H](NC(=O)[C@H](CC(C)C)NC(=O)[C@@H](CCCCN)NC(=O)[C@@H](CCCCN)NC(=O)[C@H](CC(C)C)NC(=O)[C@@H](CC(C)C)NC(=O)[C@H](CCCCN)NC(=O)[C@H](CC(C)C)NC(=O)[C@@H](CC(C)C)NC(=O)[C@H](CC(C)C)NC(=O)[C@H](CCCCN)NC(=O)CNC(=O)CNC(=O)CNC(=O)[C@H](CCCNC(=N)N)NC(=O)[C@@H]1CCCN1C(=O)[C@@H]1CCCN1C(=O)[C@H](CC(C)C)NC(=O)[C@H](Cc1c[nH]c2ccccc12)NC(=O)[C@@H](NC(=O)[C@H](C)N)[C@@H](C)O)C(=O)N[C@@H](CCCCN)C(=O)N[C@H](CC(C)C)C(=O)N[C@@H](CC(C)C)C(=O)N[C@@H](CCCCN)C(=O)N[C@@H](CCCCN)C(=O)N[C@@H](CCCCN)C(=O)O` [VEGFR2-Lytic] (H-ATWLPPRGGGKL[dL]LK[dL]L[dK][dK]LLK[dL]LKKK-OH; N-terminus and C-terminus assumed): the concentration for half-maximal inhibition (IC50) was 3.5 µM with U937; 8.9 µM with LNCaP; 12.2 µM in the experiment with BxPC-3 [4]; greater than 20 µM in the experiment on MRC-5; 6.4 µM in the experiment on T47D [7]; greater than 20 µM with HEK293. Also, the concentration for half-maximal inhibition (IC50) in the experiment with OE19 worked out at 7.1 µM.

In the case of “NYQWVPYQGRVPYPR (NRP1 binding peptide) [NRP1-binding peptide]”, the “binding affinity (BIACORE, words)” value in [11] was “binding affinity with human recombinant NRP1 protein was observed”.
